This is an account of results in ChEMBL document CHEMBL4651402, “Screening of ~5500 FDA-approved drugs and clinical candidates for anti-SARS-CoV-2 activity” (2021).

One test has as its system SARS-CoV-2. The test can be described thus: microbe, parasite or virus in culture. As to conditions: Severe acute respiratory syndrome coronavirus 2, Vero C1008, 48 h.
For `Cc1noc(COc2ccccc2OCC(O)CNC(C)(C)C)n1` (configuration not stated), the IC50 is above 20 µM.
Regarding `CCCCCCCCCC(=O)OC1(c2ccc(Cl)cc2)CCN(CCCC(=O)c2ccc(F)cc2)CC1` [HALOPERIDOL DECANOATE], the IC50 is above 20 µM.
The same measure, in the same setting: under `CNc1nccc(-c2cc3cc(C(=O)N[C@@H](CN(c4ccccc4)c4ncccn4)C(N)=O)ccc3[nH]2)n1` stands above 20 µM.
On the same count and under the same terms, under `CCCCCCCC(=O)O` [OCTANOIC ACID] stands above 20 µM; under `CC(CN(C)C)CN1c2ccccc2CCc2ccccc21` (configuration not stated) [TRIMIPRAMINE], above 20 µM; under `Cn1cc(-c2cc3c(N4CCN(c5ncc([C@@](C)(N)c6ccc(F)cc6)cn5)CC4)ncnn3c2)cn1` [AVAPRITINIB], above 20 µM.
Still for that read-out and setting: under `Cc1c(N)cccc1Cn1ccc(OCCc2cccs2)cc1=O` [CG-400549] stands above 20 µM; under `Oc1ccc(OCc2ccccc2)cc1` [MONOBENZONE], above 20 µM; under `CC(C)[C@H]1CC[C@H](C(=O)N[C@H](Cc2ccccc2)C(=O)O)CC1` [NATEGLINIDE], above 20 µM.
`O=c1[nH]c(=O)n([C@@H]2O[C@H](CO)[C@@H](O)[C@@H]2F)cc1I` [FIALURIDINE] gave an IC50 above 20 µM.
On the same count and under the same terms, under `NCc1ccccc1CC(=O)N[C@@H]1C(=O)N2C(C(=O)O)=C(CSc3nnnn3CC(=O)O)CS[C@H]12` [CEFORANIDE] stands above 20 µM.
Still for that read-out and setting: the same measure for `CCCS(=O)(=O)Nc1ccc(F)c(C(=O)c2c[nH]c3ncc(-c4ccc(Cl)cc4)cc23)c1F` [VEMURAFENIB]: above 20 µM; for `Nc1nc(=O)c2nc(CNc3ccc(C(=O)N[C@@H](CCC(=O)O)C(=O)O)cc3)cnc2[nH]1` [FOLIC ACID]: above 20 µM; for `O=C(O)Cc1c[nH]cn1` [IMIDAZOLE ACETIC ACID]: above 20 µM.
Consider `Cc1cc(C)nc(NS(=O)(=O)c2ccc(N)cc2)n1` [SULFAMETHAZINE], for which the IC50 was above 20 µM.
On the same count and under the same terms, the same measure for `CC(C)(C)NCC(O)c1ccc(O)c(O)c1` (configuration not stated) [COLTEROL]: above 20 µM; for `O=C(O)CCc1nc2ccccc2[nH]1` [PROCODAZOLE]: above 20 µM.
Still for that read-out and setting: the same measure for `N[C@H]1C[C@@H]1c1ccccc1` [(+)-TRANYLCYPROMINE]: above 20 µM.
Still for that read-out and setting: the same measure for `O=C(O)[C@H]1O[C@@H](Oc2cc3oc(-c4ccccc4)cc(=O)c3c(O)c2O)[C@H](O)[C@@H](O)[C@@H]1O` [BAICALIN]: above 20 µM; for `CN1CCN(C2=Nc3cscc3/C(=C/C#N)c3cscc32)CC1` [TENILAPINE]: above 20 µM.
In turn, `O=C(/C=C/c1ccc(O)c(O)c1)O[C@H](Cc1ccc(O)c(O)c1)C(=O)O` [ROSMARINIC ACID] gave an IC50 above 20 µM.
Molecule `O=C(NCCN1CCN(c2ncccn2)CC1)C12CC3CC(CC(C3)C1)C2` [ADATANSERIN] yielded an IC50 above 20 µM.
`Nc1nc(NC2CC2)c2ncn([C@H]3C=C[C@@H](CO)C3)c2n1` [ABACAVIR]: the IC50 was above 20 µM.
On the same count and under the same terms, under `Oc1ccc2[nH]cc(CCCCN3CC=C(c4ccccc4)CC3)c2c1` [ROXINDOLE] stands above 20 µM.
On the same count and under the same terms, the same measure for `O=C(Cc1ccc(-c2ccccc2)cc1)Nc1ccccn1` [DIFENPIRAMIDE]: above 20 µM; for `Cc1ccc(C[N+](C)(C)C)o1`: above 20 µM.
For the molecule `CC#CCn1c(N2CCC[C@@H](N)C2)nc2c1c(=O)n(Cc1nc(C)c3ccccc3n1)c(=O)n2C` [LINAGLIPTIN], the IC50 is above 20 µM.
On the same count and under the same terms, under `CC(=O)C1CCC2C3CCC4=CC(=O)CCC4(C)C3C(O)CC12C` (configuration not stated) stands above 20 µM; under `COc1ccc2c3c1O[C@H]1C(=O)CC[C@@]4(O)[C@@H](C2)N(C)CC[C@]314` [OXYCODONE], above 20 µM; under `C[C@@H]1COC(Nc2ccc3ncnc(Nc4ccc(OCc5nccs5)c(Cl)c4)c3c2)=N1` [VARLITINIB], above 20 µM.
The same measure, in the same setting: the same measure for `C[C@]1(O)CCC2C3CC[C@H]4CC(=O)/C(=C/O)C[C@]4(C)C3CC[C@@]21C` (some centres not stated): above 20 µM.

Staying with this test, now noted: Severe acute respiratory syndrome coronavirus 2, Vero C1008, 48 h, read-out: pIC50 (converted).
`Cc1noc(COc2ccccc2OCC(O)CNC(C)(C)C)n1` (configuration not stated): the IC50 was above 20 µM.
Still for that read-out and setting: under `CCCCCCCCCC(=O)OC1(c2ccc(Cl)cc2)CCN(CCCC(=O)c2ccc(F)cc2)CC1` [HALOPERIDOL DECANOATE] stands above 20 µM.
The same measure, in the same setting: under `CNc1nccc(-c2cc3cc(C(=O)N[C@@H](CN(c4ccccc4)c4ncccn4)C(N)=O)ccc3[nH]2)n1` stands above 20 µM.
Still for that read-out and setting: the same measure for `CCCCCCCC(=O)O` [OCTANOIC ACID]: above 20 µM.
With `CC(CN(C)C)CN1c2ccccc2CCc2ccccc21` (configuration not stated) [TRIMIPRAMINE], the IC50 was above 20 µM.
With `Cn1cc(-c2cc3c(N4CCN(c5ncc([C@@](C)(N)c6ccc(F)cc6)cn5)CC4)ncnn3c2)cn1` [AVAPRITINIB], the IC50 was above 20 µM.
Same read-out and setting: the same measure for `Cc1c(N)cccc1Cn1ccc(OCCc2cccs2)cc1=O` [CG-400549]: above 20 µM; for `Oc1ccc(OCc2ccccc2)cc1` [MONOBENZONE]: above 20 µM.
Take `CC(C)[C@H]1CC[C@H](C(=O)N[C@H](Cc2ccccc2)C(=O)O)CC1` [NATEGLINIDE]: the IC50 was above 20 µM.
Turning to `O=c1[nH]c(=O)n([C@@H]2O[C@H](CO)[C@@H](O)[C@@H]2F)cc1I` [FIALURIDINE], the IC50 was above 20 µM.
Still for that read-out and setting: under `NCc1ccccc1CC(=O)N[C@@H]1C(=O)N2C(C(=O)O)=C(CSc3nnnn3CC(=O)O)CS[C@H]12` [CEFORANIDE] stands above 20 µM; under `CCCS(=O)(=O)Nc1ccc(F)c(C(=O)c2c[nH]c3ncc(-c4ccc(Cl)cc4)cc23)c1F` [VEMURAFENIB], above 20 µM; under `Nc1nc(=O)c2nc(CNc3ccc(C(=O)N[C@@H](CCC(=O)O)C(=O)O)cc3)cnc2[nH]1` [FOLIC ACID], above 20 µM.
With `O=C(O)Cc1c[nH]cn1` [IMIDAZOLE ACETIC ACID], the IC50 was above 20 µM.
Turning to `Cc1cc(C)nc(NS(=O)(=O)c2ccc(N)cc2)n1` [SULFAMETHAZINE], the IC50 was above 20 µM.
Same read-out and setting: under `CC(C)(C)NCC(O)c1ccc(O)c(O)c1` (configuration not stated) [COLTEROL] stands above 20 µM.
For `O=C(O)CCc1nc2ccccc2[nH]1` [PROCODAZOLE], the IC50 was above 20 µM.
In the case of `N[C@H]1C[C@@H]1c1ccccc1` [(+)-TRANYLCYPROMINE], the IC50 was above 20 µM.
The same measure, in the same setting: the same measure for `O=C(O)[C@H]1O[C@@H](Oc2cc3oc(-c4ccccc4)cc(=O)c3c(O)c2O)[C@H](O)[C@@H](O)[C@@H]1O` [BAICALIN]: above 20 µM; for `CN1CCN(C2=Nc3cscc3/C(=C/C#N)c3cscc32)CC1` [TENILAPINE]: above 20 µM.
On the same count and under the same terms, under `O=C(/C=C/c1ccc(O)c(O)c1)O[C@H](Cc1ccc(O)c(O)c1)C(=O)O` [ROSMARINIC ACID] stands above 20 µM; under `O=C(NCCN1CCN(c2ncccn2)CC1)C12CC3CC(CC(C3)C1)C2` [ADATANSERIN], above 20 µM.
On the same count and under the same terms, under `Nc1nc(NC2CC2)c2ncn([C@H]3C=C[C@@H](CO)C3)c2n1` [ABACAVIR] stands above 20 µM.
Regarding `Oc1ccc2[nH]cc(CCCCN3CC=C(c4ccccc4)CC3)c2c1` [ROXINDOLE], the IC50 was above 20 µM.
With `O=C(Cc1ccc(-c2ccccc2)cc1)Nc1ccccn1` [DIFENPIRAMIDE], the IC50 was above 20 µM.
Consider `Cc1ccc(C[N+](C)(C)C)o1`, for which the IC50 was above 20 µM.
Take `CC#CCn1c(N2CCC[C@@H](N)C2)nc2c1c(=O)n(Cc1nc(C)c3ccccc3n1)c(=O)n2C` [LINAGLIPTIN]: the IC50 was above 20 µM.
On the same count and under the same terms, the same measure for `CC(=O)C1CCC2C3CCC4=CC(=O)CCC4(C)C3C(O)CC12C` (configuration not stated): above 20 µM; for `COc1ccc2c3c1O[C@H]1C(=O)CC[C@@]4(O)[C@@H](C2)N(C)CC[C@]314` [OXYCODONE]: above 20 µM.
Same read-out and setting: under `C[C@@H]1COC(Nc2ccc3ncnc(Nc4ccc(OCc5nccs5)c(Cl)c4)c3c2)=N1` [VARLITINIB] stands above 20 µM; under `C[C@]1(O)CCC2C3CC[C@H]4CC(=O)/C(=C/O)C[C@]4(C)C3CC[C@@]21C` (some centres not stated), above 20 µM.
